For two molecules, IC50 and EC50 results are on record in PMC12112586, “Inhibitory Effect of Fluralaner on GABA Receptor Subunit RDL of Bactrocera dorsalis” (Insects, 2025).

As usually defined, the IC50 is the concentration that gives 50% inhibition. A higher IC50 goes with a need for much substance. Usually EC50 stands for the concentration giving half of the maximal effect. A high value points to a need for much substance.

The target of assay [1] is T1, BdRDL (GABA receptor subunit RDL) (Bactrocera dorsalis, UniProt A0ABM3JZQ9).
T1 construct: gene LOC105225059; full-length ORF, 596 amino acids (GenBank XM_049458762), homomeric receptor expressed in Xenopus oocytes
T1 sequence (A0ABM3JZQ9 1-596): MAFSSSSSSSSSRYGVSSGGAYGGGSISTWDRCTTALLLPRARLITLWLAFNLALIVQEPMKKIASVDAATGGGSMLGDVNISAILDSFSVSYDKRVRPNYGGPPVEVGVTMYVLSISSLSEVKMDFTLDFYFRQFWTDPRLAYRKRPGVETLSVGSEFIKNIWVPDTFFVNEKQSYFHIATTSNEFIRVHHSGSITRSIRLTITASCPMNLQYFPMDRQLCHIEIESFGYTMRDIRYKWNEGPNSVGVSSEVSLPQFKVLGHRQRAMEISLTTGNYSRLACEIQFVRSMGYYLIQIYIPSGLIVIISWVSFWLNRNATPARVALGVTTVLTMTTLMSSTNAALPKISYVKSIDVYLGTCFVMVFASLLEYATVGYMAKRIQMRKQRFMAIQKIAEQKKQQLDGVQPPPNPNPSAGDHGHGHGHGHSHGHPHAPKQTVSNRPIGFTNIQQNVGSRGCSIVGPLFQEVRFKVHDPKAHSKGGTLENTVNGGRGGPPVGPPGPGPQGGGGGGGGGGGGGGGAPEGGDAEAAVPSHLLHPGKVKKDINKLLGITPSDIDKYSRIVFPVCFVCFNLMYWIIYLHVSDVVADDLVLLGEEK
Description: two-electrode voltage clamp in Xenopus oocytes, inhibition of GABA (EC50)-induced currents. In kind it is cell-based.

Assay [2] concerns the target T1, BdRDL (GABA receptor subunit RDL). As to the kind of experiment: two-electrode voltage clamp in Xenopus oocytes, agonist-induced currents. In kind it is cell-based. For orientation: Two-electrode voltage clamp is typically applied to oocytes expressing channels or transporters.

Consider `Cc1cc(C2=NOC(c3cc(Cl)cc(Cl)c3)(C(F)(F)F)C2)ccc1C(=O)NCC(=O)NCC(F)(F)F` (racemic) [fluralaner], for which the IC50 in assay [1] is 0.15 µM. `NCCCC(=O)O` [GABA] had an EC50 in assay [2] of 240 µM.
